Laboratory results as given in ChEMBL document CHEMBL1201862, “PubChem BioAssay data set” (2004).
Active and inactive are the calls of the source.

What was measured:
Type in all cases: functional
[1] = target: Dual specificity protein kinase CLK4 (Homo sapiens, UniProt Q9HAZ1)
[2] = target: ALK tyrosine kinase receptor (Homo sapiens, UniProt Q9UM73);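 also: ALK tested as one member of a kinase panel screen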
[3] = target: Glycogen synthase kinase-3 beta (Homo sapiens, UniProt P49841);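 also: value comes from a broad kinome profiling panel, with GSK3B as the panel member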
[4] = target: Serine/threonine-protein kinase TBK1 (Homo sapiens, UniProt Q9UHD2); test: Navigating the Kinome. Panel member name: TBK1
[5] = target: Tyrosine-protein kinase BTK (Homo sapiens, UniProt Q06187)
[6] = target: High affinity nerve growth factor receptor (Homo sapiens, UniProt P04629);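 also: NTRK1 tested as one member of a kinome-wide profiling panel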
[7] = target: Casein kinase I isoform alpha (Homo sapiens, UniProt P48729)
[8] = target: Vascular endothelial growth factor receptor 1 (Homo sapiens, UniProt P17948);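 also: measured within a kinome-wide profiling panel, FLT1 as the panel member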
[9] = target: Leukocyte tyrosine kinase receptor (Homo sapiens, UniProt P29376); test: Navigating the Kinome. Panel member name: LTK
[10] = target: Focal adhesion kinase 1 (Homo sapiens, UniProt Q05397);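 also: measured as one member of a kinome panel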
[11] = target: Activated CDC42 kinase 1 (Homo sapiens, UniProt Q07912); test: Navigating the Kinome. Panel member name: ACK1
[12] = target: Rho-associated protein kinase 1 (Homo sapiens, UniProt Q13464);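 also: measured within a broad kinome-wide panel profiling many kinases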
[13] = target: Leucine-rich repeat serine/threonine-protein kinase 2 (Homo sapiens, UniProt Q5S007);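 also: value from a broad kinome-wide panel profiling study in which LRRK2 was one of the kinases tested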
[14] = target: Mast/stem cell growth factor receptor Kit (Homo sapiens, UniProt P10721);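 also: KIT entry within a kinase panel assay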
[15] = target: Dual specificity tyrosine-phosphorylation-regulated kinase 1A (Homo sapiens, UniProt Q13627);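 also: measured against DYRK1A as one member of a broad kinome profiling panel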
[16] = target: Serine/threonine-protein kinase PAK 4 (Homo sapiens, UniProt O96013);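 also: value obtained within a kinome profiling panel in which PAK4 was one of the panel members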
[17] = target: Death-associated protein kinase 3 (Homo sapiens, UniProt O43293);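 also: measured as one member of a kinome-wide profiling panel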
[18] = target: Protein kinase C theta type (Homo sapiens, UniProt Q04759); test: Navigating the Kinome. Panel member name: PRKCQ
[19] = target: Mitogen-activated protein kinase kinase kinase kinase 4 (Homo sapiens, UniProt O95819)
[20] = target: 5'-AMP-activated protein kinase catalytic subunit alpha-1 (Homo sapiens, UniProt Q13131)
[21] = target: Dual specificity mitogen-activated protein kinase kinase 2 (Homo sapiens, UniProt P36507); test: Navigating the Kinome. Panel member name: MAP2K2
[22] = target: Mitogen-activated protein kinase 8 (Homo sapiens, UniProt P45983);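 also: value comes from one member of a kinome-wide kinase profiling panel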
[23] = target: Macrophage-stimulating protein receptor (Homo sapiens, UniProt Q04912); test: Navigating the Kinome. Panel member name: MST1R
[24] = target: Dual specificity tyrosine-phosphorylation-regulated kinase 1B (Homo sapiens, UniProt Q9Y463); test: Navigating the Kinome. Panel member name: DYRK1B
[25] = target: Dual specificity protein kinase CLK2 (Homo sapiens, UniProt P49760)
[26] = target: Aurora kinase A (Homo sapiens, UniProt O14965);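 also: value from the Navigating the Kinome kinase panel profiling, panel entry STK6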
[27] = target: Tyrosine-protein kinase receptor TYRO3 (Homo sapiens, UniProt Q06418);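 also: TYRO3 value obtained as one member of a kinome-wide profiling panel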
[28] = target: Calcium/calmodulin-dependent protein kinase type II subunit alpha (Homo sapiens, UniProt Q9UQM7); test: Navigating the Kinome. Panel member name: CAMK2A
[29] = target: Insulin-like growth factor 1 receptor (Homo sapiens, UniProt P08069); test: Navigating the Kinome. Panel member name: IGF1R
[30] = target: Hepatocyte growth factor receptor (Homo sapiens, UniProt P08581);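 also: kinase panel profiling across the kinome, with MET as the panel member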
[31] = target: Tyrosine-protein kinase Lck (Homo sapiens, UniProt P06239);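 also: lck was assayed as one member of a kinase panel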
[32] = target: Cyclin-dependent kinase 9 (Homo sapiens, UniProt P50750);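 also: value from the CDK9 entry of a kinome-spanning kinase panel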
[33] = target: Tyrosine-protein kinase JAK3 (Homo sapiens, UniProt P52333)
[34] = target: Serine/threonine-protein kinase pim-1 (Homo sapiens, UniProt P11309)
[35] = target: Dual specificity mitogen-activated protein kinase kinase 1 (Homo sapiens, UniProt Q02750); test: Navigating the Kinome. Panel member name: MAP2K1
[36] = target: Macrophage colony-stimulating factor 1 receptor (Homo sapiens, UniProt P07333);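 also: value comes from the Navigating the Kinome screening panel, CSF1R member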
[37] = target: Proto-oncogene tyrosine-protein kinase receptor Ret (Homo sapiens, UniProt P07949);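 also: measured within a kinome-wide profiling panel, RET as the panel member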
[38] = target: Tyrosine-protein kinase Fyn (Homo sapiens, UniProt P06241)
[39] = target: Cyclin-dependent kinase 7 (Homo sapiens, UniProt P50613);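 also: value comes from a kinome-wide kinase profiling panel in which CDK7 is one member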
[40] = target: BDNF/NT-3 growth factors receptor (Homo sapiens, UniProt Q16620);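 also: NTRK2 measured as one member of a broad kinome-wide kinase profiling panel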
[41] = target: Glycogen synthase kinase-3 alpha (Homo sapiens, UniProt P49840);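 also: GSK3A result taken from a broad kinome-wide kinase panel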
[42] = target: cAMP-dependent protein kinase catalytic subunit alpha (Homo sapiens, UniProt P17612)

Sequence of Serine/threonine-protein kinase TBK1 (Q9UHD2 whole entry): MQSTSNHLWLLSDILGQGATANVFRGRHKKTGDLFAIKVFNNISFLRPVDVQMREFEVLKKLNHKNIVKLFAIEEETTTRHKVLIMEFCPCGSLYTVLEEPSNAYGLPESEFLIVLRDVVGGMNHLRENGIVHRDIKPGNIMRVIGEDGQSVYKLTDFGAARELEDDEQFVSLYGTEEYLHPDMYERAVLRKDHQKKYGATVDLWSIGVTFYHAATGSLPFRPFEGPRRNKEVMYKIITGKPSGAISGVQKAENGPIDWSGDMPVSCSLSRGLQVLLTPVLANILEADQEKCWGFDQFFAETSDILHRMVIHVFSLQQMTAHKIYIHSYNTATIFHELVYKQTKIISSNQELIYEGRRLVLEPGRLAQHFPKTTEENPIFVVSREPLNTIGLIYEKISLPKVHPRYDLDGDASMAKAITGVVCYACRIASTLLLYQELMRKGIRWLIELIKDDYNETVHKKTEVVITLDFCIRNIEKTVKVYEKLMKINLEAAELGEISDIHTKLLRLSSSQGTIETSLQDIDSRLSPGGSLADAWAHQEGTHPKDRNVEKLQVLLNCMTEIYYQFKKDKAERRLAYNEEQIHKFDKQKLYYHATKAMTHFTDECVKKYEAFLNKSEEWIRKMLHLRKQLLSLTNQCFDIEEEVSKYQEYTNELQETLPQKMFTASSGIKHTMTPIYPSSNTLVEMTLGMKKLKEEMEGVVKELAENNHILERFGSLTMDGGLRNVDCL
Sequence of Aurora kinase A (O14965 whole entry): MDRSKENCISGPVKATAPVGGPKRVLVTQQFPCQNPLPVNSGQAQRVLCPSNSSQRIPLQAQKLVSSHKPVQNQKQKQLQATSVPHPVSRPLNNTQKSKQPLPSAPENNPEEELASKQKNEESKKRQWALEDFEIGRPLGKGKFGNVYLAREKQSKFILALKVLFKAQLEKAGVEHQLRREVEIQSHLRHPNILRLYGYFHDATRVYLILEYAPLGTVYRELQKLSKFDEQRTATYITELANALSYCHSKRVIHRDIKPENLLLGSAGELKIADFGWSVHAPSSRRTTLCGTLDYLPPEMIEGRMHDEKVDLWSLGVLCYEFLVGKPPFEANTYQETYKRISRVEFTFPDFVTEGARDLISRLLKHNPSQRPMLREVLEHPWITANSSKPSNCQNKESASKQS
Sequence of Serine/threonine-protein kinase pim-1 (P11309 whole entry): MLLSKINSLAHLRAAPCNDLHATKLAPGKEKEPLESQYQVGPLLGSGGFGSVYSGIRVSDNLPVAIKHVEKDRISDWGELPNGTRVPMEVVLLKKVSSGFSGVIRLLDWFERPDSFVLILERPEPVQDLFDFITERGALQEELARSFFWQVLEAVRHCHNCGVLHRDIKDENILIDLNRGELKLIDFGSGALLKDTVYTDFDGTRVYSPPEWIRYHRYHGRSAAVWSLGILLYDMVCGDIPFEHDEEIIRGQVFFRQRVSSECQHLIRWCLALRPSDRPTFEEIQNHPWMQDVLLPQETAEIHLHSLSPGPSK
Sequence of Casein kinase I isoform alpha (P48729 whole entry, canonical isoform): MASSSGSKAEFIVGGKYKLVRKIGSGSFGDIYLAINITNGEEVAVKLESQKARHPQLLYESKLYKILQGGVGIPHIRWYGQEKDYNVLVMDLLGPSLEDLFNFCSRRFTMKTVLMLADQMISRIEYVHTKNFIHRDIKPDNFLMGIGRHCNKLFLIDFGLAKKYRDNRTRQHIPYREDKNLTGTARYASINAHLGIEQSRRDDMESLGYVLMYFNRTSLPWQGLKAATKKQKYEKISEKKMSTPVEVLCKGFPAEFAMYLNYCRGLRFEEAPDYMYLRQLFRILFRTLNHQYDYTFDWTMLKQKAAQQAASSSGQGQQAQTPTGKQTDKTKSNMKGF
Sequence of Tyrosine-protein kinase JAK3 (P52333 whole entry): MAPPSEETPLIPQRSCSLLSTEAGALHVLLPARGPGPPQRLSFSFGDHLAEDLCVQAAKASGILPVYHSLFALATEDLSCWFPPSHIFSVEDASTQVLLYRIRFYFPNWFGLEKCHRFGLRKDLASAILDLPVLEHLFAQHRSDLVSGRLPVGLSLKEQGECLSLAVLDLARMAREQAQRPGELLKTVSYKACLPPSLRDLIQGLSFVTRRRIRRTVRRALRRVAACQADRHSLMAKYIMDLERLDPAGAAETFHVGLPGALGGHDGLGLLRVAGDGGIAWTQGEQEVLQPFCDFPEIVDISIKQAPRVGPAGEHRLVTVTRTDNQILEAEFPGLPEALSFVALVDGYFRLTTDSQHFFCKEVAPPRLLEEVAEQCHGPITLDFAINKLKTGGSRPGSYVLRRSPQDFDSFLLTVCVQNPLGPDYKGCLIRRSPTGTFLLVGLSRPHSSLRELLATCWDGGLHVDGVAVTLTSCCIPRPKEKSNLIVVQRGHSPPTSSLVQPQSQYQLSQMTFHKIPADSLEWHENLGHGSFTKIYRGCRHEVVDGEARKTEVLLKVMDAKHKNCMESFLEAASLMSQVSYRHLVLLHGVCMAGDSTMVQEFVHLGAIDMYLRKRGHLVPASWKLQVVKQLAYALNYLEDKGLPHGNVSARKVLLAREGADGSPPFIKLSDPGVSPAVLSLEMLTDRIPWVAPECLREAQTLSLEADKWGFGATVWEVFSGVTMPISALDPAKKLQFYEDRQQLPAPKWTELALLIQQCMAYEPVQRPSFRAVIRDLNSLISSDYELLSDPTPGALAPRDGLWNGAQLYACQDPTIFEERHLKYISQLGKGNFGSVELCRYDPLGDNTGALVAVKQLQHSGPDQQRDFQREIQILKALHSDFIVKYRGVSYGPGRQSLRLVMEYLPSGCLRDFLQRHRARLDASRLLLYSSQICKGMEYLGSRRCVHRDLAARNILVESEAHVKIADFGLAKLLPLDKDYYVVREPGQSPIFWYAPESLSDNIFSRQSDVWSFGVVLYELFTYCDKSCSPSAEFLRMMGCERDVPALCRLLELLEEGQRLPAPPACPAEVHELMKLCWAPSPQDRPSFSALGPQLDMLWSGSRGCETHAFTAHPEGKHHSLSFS
Sequence of Death-associated protein kinase 3 (O43293 whole entry): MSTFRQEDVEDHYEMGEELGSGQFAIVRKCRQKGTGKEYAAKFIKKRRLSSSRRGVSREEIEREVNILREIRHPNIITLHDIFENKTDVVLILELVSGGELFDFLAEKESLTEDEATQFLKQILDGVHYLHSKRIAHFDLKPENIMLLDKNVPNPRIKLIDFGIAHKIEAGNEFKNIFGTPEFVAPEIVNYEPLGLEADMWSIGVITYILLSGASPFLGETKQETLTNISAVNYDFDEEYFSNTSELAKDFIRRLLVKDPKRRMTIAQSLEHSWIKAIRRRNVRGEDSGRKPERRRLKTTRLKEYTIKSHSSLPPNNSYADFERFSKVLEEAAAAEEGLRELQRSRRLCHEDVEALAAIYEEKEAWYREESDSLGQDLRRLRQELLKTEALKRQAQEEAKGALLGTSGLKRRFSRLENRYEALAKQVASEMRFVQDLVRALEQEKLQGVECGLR
Sequence of Calcium/calmodulin-dependent protein kinase type II subunit alpha (Q9UQM7 whole entry): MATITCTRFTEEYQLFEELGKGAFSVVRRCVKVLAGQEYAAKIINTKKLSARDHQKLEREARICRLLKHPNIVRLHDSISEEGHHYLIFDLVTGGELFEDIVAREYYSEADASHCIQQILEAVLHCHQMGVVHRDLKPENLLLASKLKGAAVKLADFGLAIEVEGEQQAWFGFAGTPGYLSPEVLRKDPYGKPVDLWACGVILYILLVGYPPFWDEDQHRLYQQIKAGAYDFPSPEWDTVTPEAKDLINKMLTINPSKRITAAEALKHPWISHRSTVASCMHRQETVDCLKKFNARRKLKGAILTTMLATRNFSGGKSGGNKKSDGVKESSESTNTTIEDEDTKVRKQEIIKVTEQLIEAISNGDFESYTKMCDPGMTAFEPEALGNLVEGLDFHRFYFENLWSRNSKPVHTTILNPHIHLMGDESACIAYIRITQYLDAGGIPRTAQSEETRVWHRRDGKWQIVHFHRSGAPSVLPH
Sequence of Tyrosine-protein kinase Lck (P06239 whole entry): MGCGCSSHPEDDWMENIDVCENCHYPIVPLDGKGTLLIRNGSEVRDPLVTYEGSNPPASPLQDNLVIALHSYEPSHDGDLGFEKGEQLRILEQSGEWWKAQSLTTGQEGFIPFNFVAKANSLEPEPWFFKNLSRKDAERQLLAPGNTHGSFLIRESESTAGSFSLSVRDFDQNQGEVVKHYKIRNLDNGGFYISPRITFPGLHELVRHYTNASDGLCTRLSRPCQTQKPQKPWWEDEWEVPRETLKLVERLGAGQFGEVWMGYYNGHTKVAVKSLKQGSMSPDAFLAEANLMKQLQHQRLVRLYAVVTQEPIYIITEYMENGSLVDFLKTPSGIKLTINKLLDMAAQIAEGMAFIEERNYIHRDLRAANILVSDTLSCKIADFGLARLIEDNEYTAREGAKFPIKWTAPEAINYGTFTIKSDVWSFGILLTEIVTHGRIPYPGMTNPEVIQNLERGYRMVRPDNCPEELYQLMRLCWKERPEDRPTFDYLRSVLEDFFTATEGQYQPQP
Sequence of Cyclin-dependent kinase 7 (P50613 whole entry): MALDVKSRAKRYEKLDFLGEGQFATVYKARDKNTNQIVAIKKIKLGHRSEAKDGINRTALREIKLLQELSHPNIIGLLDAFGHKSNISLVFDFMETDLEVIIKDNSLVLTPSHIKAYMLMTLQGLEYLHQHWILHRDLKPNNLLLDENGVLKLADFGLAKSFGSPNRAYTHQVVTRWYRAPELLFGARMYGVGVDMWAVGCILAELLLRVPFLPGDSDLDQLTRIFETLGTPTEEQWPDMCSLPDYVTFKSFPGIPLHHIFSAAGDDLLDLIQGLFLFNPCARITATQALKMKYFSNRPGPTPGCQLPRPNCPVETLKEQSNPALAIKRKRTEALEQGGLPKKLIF

## NC(=O)c1ccc(-c2nc(-c3ccc4c(c3)OCO4)c(-c3ccccn3)[nH]2)cc1 [SB-431542]
[1]
  Ki: > 2.51 µM (inactive)
[2]
  Ki: > 6.31 µM (inactive)
[3]
  Ki: > 3.98 µM (inactive)
[4]
  Ki: > 3.16 µM (inactive)
[5]
  Ki: > 6.31 µM (inactive)
[6]
  Ki: > 3.16 µM (inactive)
[7]
  Ki: 0.1 µM (active)
[8]
  Ki: > 3.98 µM (inactive)
[9]
  Ki: > 2.51 µM (inactive)
[10]
  Ki: > 6.31 µM (inactive)
[11]
  Ki: > 3.98 µM (inactive)
[12]
  Ki: > 3.98 µM (inactive)
[13]
  Ki: > 2.51 µM (inactive)
[14]
  Ki: > 6.31 µM (inactive)
[15]
  Ki: > 2 µM (inactive)
[16]
  Ki: > 5.01 µM (inactive)
[17]
  Ki: > 5.01 µM (inactive)
[18]
  Ki: > 2.51 µM (inactive)
[19]
  Ki: > 5.01 µM (inactive)
[20]
  Ki: > 3.16 µM (inactive)
[21]
  Ki: > 3.98 µM (inactive)
[22]
  Ki: > 5.01 µM (inactive)
[23]
  Ki: > 3.98 µM (inactive)
[24]
  Ki: > 2.51 µM (inactive)
[25]
  Ki: > 3.98 µM (inactive)
[26]
  Ki: > 1.58 µM (inactive)
[27]
  Ki: > 3.16 µM (inactive)
[28]
  Ki: > 7.94 µM (inactive)
[29]
  Ki: > 2.51 µM (inactive)
[30]
  Ki: > 2.51 µM (inactive)
[31]
  Ki: > 6.31 µM (inactive)
[32]
  Ki: > 1.58 µM (inactive)
[33]
  Ki: > 5.01 µM (inactive)
[34]
  Ki: > 6.31 µM (inactive)
[35]
  Ki: > 3.16 µM (inactive)
[36]
  Ki: > 2.51 µM (inactive)
[37]
  Ki: > 3.16 µM (inactive)
[38]
  Ki: > 6.31 µM (inactive)
[39]
  Ki: > 3.98 µM (inactive)
[40]
  Ki: > 3.98 µM (inactive)
[41]
  Ki: > 3.98 µM (inactive)
[42]
  Ki: > 1.26 µM (inactive)
